Experiments:
[1] = biological target: T1, DNA topoisomerase 1 (Homo sapiens) (UniProt P11387); assay: Stability constant for DNA topoisomerase I complex in competitive DNA assay
T1 sequence (whole entry): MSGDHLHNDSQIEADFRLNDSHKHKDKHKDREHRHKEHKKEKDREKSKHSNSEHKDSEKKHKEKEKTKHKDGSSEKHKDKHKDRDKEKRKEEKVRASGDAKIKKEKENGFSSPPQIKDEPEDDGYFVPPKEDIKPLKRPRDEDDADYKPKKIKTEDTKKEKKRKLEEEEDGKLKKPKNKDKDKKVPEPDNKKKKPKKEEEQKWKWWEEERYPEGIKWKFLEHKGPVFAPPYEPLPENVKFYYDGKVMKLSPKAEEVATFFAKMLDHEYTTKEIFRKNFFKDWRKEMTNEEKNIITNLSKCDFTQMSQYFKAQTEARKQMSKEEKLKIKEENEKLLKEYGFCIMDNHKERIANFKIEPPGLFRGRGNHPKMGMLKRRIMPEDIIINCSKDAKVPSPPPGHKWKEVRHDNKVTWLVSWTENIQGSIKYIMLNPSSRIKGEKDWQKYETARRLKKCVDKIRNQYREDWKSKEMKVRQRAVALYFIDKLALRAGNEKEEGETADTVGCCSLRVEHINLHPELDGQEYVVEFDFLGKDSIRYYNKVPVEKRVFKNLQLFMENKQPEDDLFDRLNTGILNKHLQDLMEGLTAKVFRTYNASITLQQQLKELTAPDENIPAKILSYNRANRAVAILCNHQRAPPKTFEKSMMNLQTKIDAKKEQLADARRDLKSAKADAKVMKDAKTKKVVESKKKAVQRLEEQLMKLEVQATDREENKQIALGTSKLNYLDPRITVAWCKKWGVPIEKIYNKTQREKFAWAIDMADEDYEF

HeLa = assay: Concentration required to inhibit growth of human cervical HeLa carcinoma cell line; format: functional, cell-based
DNA topoisomerase 1 = biological target: T2, DNA topoisomerase 1 (Homo sapiens, UniProt P11387); assay: Effective concentration against DNA topoisomerase I
T2 sequence (P11387 whole entry): T1 sequence (whole entry)

PC-3 = assay: Concentration required to inhibit growth of human prostate PC-3 carcinoma cell line; format: functional, cell-based

`CC[C@@]1(O)C(=O)OCc2c1cc1n(c2=O)Cc2c-1nc1cc3c(cc1c2-c1ccc(F)cc1)OCO3` gave a K app [1] of 0.004 min⁻¹, an IC50 (HeLa; Homo sapiens, HeLa) of 16.2 nM and an EC50 (DNA topoisomerase 1) of 1390 nM. For the same molecule, the IC50 (PC-3; Homo sapiens, PC-3) was 6.3 nM.

Work on `CC[C@@]1(O)C(=O)OCc2c1cc1n(c2=O)Cc2c-1nc1cc3c(cc1c2C1CCCCC1)OCO3` yielded a K app [1] of 0.03 min⁻¹, an IC50 (HeLa; Homo sapiens, HeLa) of 9 nM and an EC50 (DNA topoisomerase 1) of 1000 nM. It also gave an IC50 (PC-3; Homo sapiens, PC-3) of 11.5 nM.

`CCc1c2c(nc3ccc(O)cc13)-c1cc3c(c(=O)n1C2)COC(=O)[C@]3(O)CC` (stereo in doubt; form 2) showed a K app [1] of 0.12 min⁻¹.

`CC[C@@]1(O)C(=O)OCc2c1cc1n(c2=O)Cc2c-1nc1cc3c(cc1c2-c1ccccc1)OCO3` gave a K app [1] of 0.005 min⁻¹, an IC50 (HeLa; Homo sapiens, HeLa) of 8.1 nM and an EC50 (DNA topoisomerase 1) of 150 nM. For the same molecule, the IC50 (PC-3; Homo sapiens, PC-3) was 8.1 nM.

`CC[C@@]1(O)C(=O)OCc2c1cc1n(c2=O)Cc2c-1nc1ccccc1c2C(C)(C)C` showed a K app [1] of 0.26 min⁻¹, an IC50 (HeLa; Homo sapiens, HeLa) of 204 nM and an EC50 (DNA topoisomerase 1) of 240 nM. For the same molecule, the IC50 (PC-3; Homo sapiens, PC-3) was 308 nM.

For `CCc1c2c(nc3ccc(O)cc13)-c1cc3c(c(=O)n1C2)COC(=O)[C@]3(O)CC` (stereo in doubt; form 1), the K app [1] was 0.06 min⁻¹.

`CC[C@@]1(O)C(=O)OCc2c1cc1n(c2=O)Cc2c-1nc1ccccc1c2CC(C)C` showed a K app [1] of 0.11 min⁻¹, an IC50 (HeLa; Homo sapiens, HeLa) of 1310 nM and an EC50 (DNA topoisomerase 1) of 450 nM. It also gave an IC50 (PC-3; Homo sapiens, PC-3) of 170 nM.

`CCCCc1c2c(nc3ccccc13)-c1cc3c(c(=O)n1C2)COC(=O)[C@]3(O)CC` was tested, and the K app [1] was 0.05 min⁻¹, the IC50 (HeLa; Homo sapiens, HeLa) was 37.3 nM and the EC50 (DNA topoisomerase 1) was 200 nM. It also gave an IC50 (PC-3; Homo sapiens, PC-3) of 48.7 nM.

Molecule `CC[C@@]1(O)C(=O)OCc2c1cc1n(c2=O)Cc2c-1nc1cc3c(cc1c2-c1ccc(C(F)(F)F)cc1)OCO3` has a K app [1] of 0.007 min⁻¹, an IC50 (HeLa; Homo sapiens, HeLa) of 6.9 nM and an EC50 (DNA topoisomerase 1) of 160 nM. It also gave an IC50 (PC-3; Homo sapiens, PC-3) of 13.4 nM.

With `CCc1c2c(nc3cc4c(cc13)OCO4)-c1cc3c(c(=O)n1C2)COC(=O)[C@]3(O)CC` the K app [1] was 0.03 min⁻¹, the IC50 (HeLa; Homo sapiens, HeLa) was 13.9 nM and the EC50 (DNA topoisomerase 1) was 270 nM. For the same molecule, the IC50 (PC-3; Homo sapiens, PC-3) was 10 nM.

For `CC[C@@]1(O)C(=O)OCc2c1cc1n(c2=O)Cc2c-1nc1ccccc1c2Cc1ccccc1`, the K app [1] was 0.24 min⁻¹, the IC50 (HeLa; Homo sapiens, HeLa) was 80.9 nM and the EC50 (DNA topoisomerase 1) was 4560 nM. It also gave an IC50 (PC-3; Homo sapiens, PC-3) of 51.2 nM.

`CC[C@@]1(O)C(=O)OCc2c1cc1n(c2=O)Cc2c-1nc1cc3c(cc1c2C1CCCC1)OCO3` gave a K app [1] of 0.02 min⁻¹, an IC50 (HeLa; Homo sapiens, HeLa) of 6.2 nM and an EC50 (DNA topoisomerase 1) of 190 nM. It also gave an IC50 (PC-3; Homo sapiens, PC-3) of 9 nM.

`CC[C@@]1(O)C(=O)OCc2c1cc1n(c2=O)Cc2cc3cc4c(cc3nc2-1)OCO4` gave a K app [1] of 0.05 min⁻¹, an IC50 (HeLa; Homo sapiens, HeLa) of 9.6 nM and an IC50 (PC-3; Homo sapiens, PC-3) of 8.1 nM.

Work on `CC[C@@]1(O)C(=O)OCc2c1cc1n(c2=O)Cc2c-1nc1cc3c(cc1c2-c1ccc(Cl)cc1)OCO3` yielded a K app [1] of 0.008 min⁻¹, an IC50 (HeLa; Homo sapiens, HeLa) of 26 nM and an EC50 (DNA topoisomerase 1) of 1160 nM. For the same molecule, the IC50 (PC-3; Homo sapiens, PC-3) was 8.2 nM.

`CC[C@@]1(O)C(=O)OCc2c1cc1n(c2=O)Cc2cc3ccccc3nc2-1` [CAMPTOTHECIN] gave a K app [1] of 0.14 min⁻¹, an IC50 (HeLa; Homo sapiens, HeLa) of 117 nM and an IC50 (PC-3; Homo sapiens, PC-3) of 1410 nM.

With `CC[C@@]1(O)C(=O)OCc2c1cc1n(c2=O)Cc2c-1nc1cc3c(cc1c2Cc1ccccc1)OCO3` the K app [1] was 0.05 min⁻¹, the IC50 (HeLa; Homo sapiens, HeLa) was 20.5 nM and the EC50 (DNA topoisomerase 1) was 1950 nM. The IC50 (PC-3; Homo sapiens, PC-3) was 18.9 nM.

Molecule `CCc1c2c(nc3ccc(O)cc13)-c1cc3c(c(=O)n1C2)COC(=O)[C@]3(O)CC` (stereo in doubt; form 2) [7-ETHYL-10-HYDROXYCAMPTOTHECIN] has an IC50 (HeLa; hela) of 38.8 nM, an EC50 (DNA topoisomerase 1) of 70 nM and an IC50 (PC-3; pc-3) of 35.3 nM.

`CC[C@@]1(O)C(=O)OCc2c1cc1n(c2=O)Cc2c-1nc1cc3c(cc1c2-c1ccc(C)cc1)OCO3` was tested, and the K app [1] was 0.005 min⁻¹, the IC50 (HeLa; Homo sapiens, HeLa) was 2 nM and the EC50 (DNA topoisomerase 1) was 1040 nM. It also gave an IC50 (PC-3; Homo sapiens, PC-3) of 8.3 nM.

Molecule `CCc1c2c(nc3ccc(O)cc13)-c1cc3c(c(=O)n1C2)COC(=O)[C@]3(O)CC` (stereo in doubt; form 1) [7-ETHYL-10-HYDROXYCAMPTOTHECIN] has an IC50 (HeLa; Homo sapiens, HeLa) of 25.7 nM, an EC50 (DNA topoisomerase 1) of 320 nM and an IC50 (PC-3; Homo sapiens, PC-3) of 35.6 nM.

— ChEMBL document CHEMBL1137998 (Bioorg Med Chem Lett, 2004)
